# Data from US20210186915A1, “PHARMACEUTICAL COMPOSITIONS HAVING HIGH DRUG LOADINGS OF MEDIUM CHAIN TRIGLYCERIDES AND METHODS RELATED THERETO” (Cerecin Inc., priority 2018, published 2021).
# What was measured:
# [1] = USP Type II sink dissolution, 2.0 wt % SLS in pH 6.8 buffer; type: physicochemical; conditions: for % LC Release, 10μ filtered: 500 mgA in 900 mL, 37° C.
# Protocol: LMPs 1, 2, and 3 were tested in a USP Type II sink dissolution experiment along with caprylic triglyceride (Miglyol 808) oil. 500 mgA of formulation was dosed into a 1000 mL vessel containing 900 mL of 2.0wt % SLS in pH 6.8 buffer. Samples were taken at 30 minutes and 17.5 hours.
# LMP-5, 7, 9, and 11 formulations were tested in a USP Type II sink dissolution experiment sink performance test using methods outlined described in EXAMPLE 3 (Tables 3-A, 3-B). […] The release rate trends as expected, in that adding more carnauba wax to the LMP matrix slows the dissolution. This is because carnauba wax is more hydrophobic than Compritol 888. […] Adding a pore former to the base LMP-11 formulation may allow for increased dissolution performance by enhancing water permeability while maintaining the desirable physical and handling attributes.
# Formulations BREC1690-155, 156, 160, 161, and 162 were tested in a sink dissolution performance test using methods outlined herein at EXAMPLE 3 (Tables 3-A and 3-B). The dissolution rate was increased by the addition of a water soluble component (PVP 17PF, PVP-VA 64 or poloxamer P407). Dissolution was tested on formulations BREC1690-155, 156, 160, 161, and 162. Comparisons of previous Compritol based LMPs (LMP-2 and LMP-5) and BREC1690- 155, 156, and 162 with a dissolution enhancer are shown in FIG. 22.
# [2] = Visual dissolution study in SLS/water solution (scintillation vials); type: physicochemical; conditions: 250 mg oil in 10 ml 0.25% or 0.5% SLS in water, stirred 20 minutes
# Protocol: Visual dissolution studies were conducted at small scale using 20 ml scintillation vials on LMP formulations 1 through 3. The test was conducted at 37° C., 25° C. and 5° C. using a 0.25% Sodium Laurel Sulfate (SLS) in water solution. A heated aluminum block and heated stir plate were used in the study. 500 mg (250 mgA, 25 mgA/mL) of each LMP formulation was added to 10 mL pre-heated 0.25% SLS solution. The samples were stirred using a Teflon stir bar on a heated stir plate to maintain temperature for 20 minutes. After 20 minutes, the LMP suspensions were allowed to settle and were assessed visually.
# Finally the test was repeated using only LMP-1 and a 0.5% SLS/water solution to access if additional surfactant would help with the apparent dissolution by increasing the solubility of the oil in water.
# An oil dissolution control test was conducted to determine how the caprylic triglyceride (Miglyol 808) oil dissolves into an SLS/water solution. Two SLS stock solutions were made at 0.25% and 0.5% SLS in water. 10 ml of each SLS solution was added to a scintillation vial along with a magnetic stir bar. 250 mg of caprylic triglyceride (Miglyol 808) oil was added to each vial and stirred for 20 minutes. Images were taken after 10 minutes and two days. […] The vial does appear slightly hazy in the 10 minute photo indicating some oil is likely emulsified in the water phase. […]
substance,measurement,setting,value
caprylic triglyceride [Miglyol 808],"% LC Release, centrifuged",[1]; 30 minutes,31.6% ± 2%
same,"% LC Release, 10μ filtered",[1]; 30 minutes,64% (n = 1) % LC
same,"% LC Release, 0.2μ filtered",[1]; 17.5 hours,87% ± 7%
same,"% LC Release, centrifuged",[1]; 17.5 hours,27.3% ± 0.6%
same,"% LC Release, 10μ filtered",[1]; 17.5 hours,46.5% ± 0.5%
same,"oil dissolution control, visual",[2],majority of the oil floats on top of the water rather than going into solution
